Measurements as given in paper PMC7870626, “Neurotoxicity and underlying cellular changes of 21 mitochondrial respiratory chain inhibitors” (Archives of Toxicology, 2021).

Tests used:
LUHMES cells = assay: NeuroGlycoTest (metabolic glycoengineering, KE3 assay); type: cell-based, human; conditions: d6 LUHMES, 6 h
Procedure: The NeuroGlycoTest was performed as previously described (Kranaster et al. [2020]). In brief, d6 LUHMES cells were co-treated for 6 h with the respiratory chain inhibitors together with 10 µM azide-tagged mannosamine precursor sugar (Ac4ManNAz), synthesized according to published procedures (Saxon et al. [2002]). After PBS-washing, a dibenzylcyclooctyne-PEG4-biotin (DBCO-biotin) [100 μM] (Jena Bioscience, Jena, Germany) solution was added for 20 min at 37 °C to label the incorporated azide-tagged sialic acids (= SiaAz).
For detection of MGE-sialoproteins, cells in 6-well plates were lyzed in Laemmli buffer and boiled for 5 min at 95 °C. […] Relative band intensity was quantified using a self-developed image evaluation software. […] At least two blots from independent experiments were quantified.
For detection of neurite MGE, cells in 8-well µ-slides were further incubated with a mixture of streptavidin-Alexa Fluor 488 [8 μg/ml] […] The processed images were analyzed using the SUIKER software (Karreman et al. [2019]) that simultaneously, from the same image, detected and quantified viability (based on the Hoechst staining), neurite area (based on the Calcein staining) and neurite MGE sialic acids (based on the streptavidin-Alexa Fluor 488 label). […]

cIII = molecular target: T1, cIII (Homo sapiens, UniProt P00156); assay: Respiratory chain complex activity in permeabilized LUHMES cells: cIII; type: cell-based
T1 construct: endogenous in cells; host or cells: LUHMES cells, digitonin-permeabilized
Procedure: To investigate individual respiratory chain complexes, a method developed earlier and described extensively was used (Delp et al. [2019]). In brief, LUHMES cells were seeded at a density of 205,000 cells/cm^2 in PM into Agilent Seahorse XFe24-well plates. […] To reduce data variability, internal normalization of the OCR of each well was done relative to its value after equilibration.

SMILES | Reduction of neurite area in the NeuroGlycoTest (LUHMES cells; highest non-cytotoxic concentration) | Neurite MGE signal / proteostasis disturbance (in words) (LUHMES cells; highest non-cytotoxic concentration (antimycin A 50 µM)) | Inhibition of cIII activity (in words) (cIII; cIII electron donor) | Uncoupling action (cIII; neuronal mitochondria, 50 µM)
CCCCCC[C@H]1C(=O)O[C@H](C)[C@H](NC(=O)c2cccc(NC=O)c2O)C(=O)O[C@@H](C)[C@@H]1OC(=O)CC(C)C [Antimycin A] | more than 25% | strong decrease |  | 
Cc1ccc(-c2c(Cl)nc(C#N)n2S(=O)(=O)N(C)C)cc1 [Cyazofamid] |  |  | not active at all | uncoupling action
